Measurements as given in patent publication US6525001B1, “Substituted pyrimidine and pyridine herbicides” (Mid-American Commercialization Corporation, priority 1997, dated 2003).

Assays:
Assay type in all cases: in vivo
Parameters in all cases: key: 0 is no effect; 10 is complete control
[1] = test system: pigweed (Amaranthus retroflexus); assay: Test B pre-/postemergence
Procedure, shortened: (§1)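 Seeds were planted and sprayed preemergence, while plants at 2 to 18 cm (1- to 4-leaf stage) were sprayed postemergence at the same time, with test chemical in a non-phytotoxic solvent mixture containing surfactant. After twelve to sixteen days in a greenhouse, injury was rated visually against untreated controls on a 0–10 scale.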

[2] = test system: purple nutsedge (Cyperus rotundus); assay: Test B pre-/postemergence
Procedure, shortened: as §1

[3] = test system: crabgrass (Digitaria sanguinalis); assay: Test B pre-/postemergence; details: for Crabgrass plant response rating: Preemergence
Procedure, shortened: as §1

[4] = test system: bedstraw (Galium aparine); assay: Test B pre-/postemergence; details: for Bedstraw plant response rating: Preemergence
Procedure, shortened: as §1

[5] = test system: corn (Zea mays); assay: Test B pre-/postemergence; details: for Corn plant response rating: Preemergence
Procedure, shortened: as §1

[6] = test system: velvetleaf (Abutilon theophrasti); assay: Test B pre-/postemergence
Procedure, shortened: as §1

[7] = test system: cocklebur (Xanthium strumarium); assay: Test B pre-/postemergence; details: for Cocklebur plant response rating: Preemergence
Procedure, shortened: as §1

[8] = test system: blackgrass (Alopecurus myosuroides); assay: Test B pre-/postemergence; details: for Blackgrass plant response rating: Preemergence
Procedure, shortened: as §1

[9] = test system: soybean (Glycine max); assay: Test B pre-/postemergence
Procedure, shortened: as §1

[10] = test system: broadleaf signalgrass (Brachiaria decumbens); assay: Test B pre-/postemergence; details: for B. signalgrass plant response rating: Preemergence
Procedure, shortened: as §1

[11] = test system: wild oat (Avena fatua); assay: Test B pre-/postemergence
Procedure, shortened: as §1

[12] = test system: giant foxtail (Setaria faberii); assay: Test B pre-/postemergence
Procedure, shortened: as §1

[13] = test system: momingglory (Ipomoea hederacea); assay: Test B pre-/postemergence
Procedure, shortened: as §1

[14] = test system: rape (Brassica napus); assay: Test B pre-/postemergence
Procedure, shortened: as §1

[15] = test system: wheat (Triticum aestivum); assay: Test B pre-/postemergence
Procedure, shortened: as §1

[16] = test system: sugar beet (Beta vulgaris); assay: Test B pre-/postemergence
Procedure, shortened: as §1

[17] = test system: bamyardgrass (Echinochloa crus-galli); assay: Test B flood test
Procedure, shortened: (§2)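 Plants were grown to the 2-leaf stage before treatment with test chemical, then held in a greenhouse for twelve to sixteen days. Injury was visually rated against untreated controls on a 0–10 scale, where 0 is no effect and 10 is complete control.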

[18] = test system: smallflower flatsedge (Cyperus difformis); assay: Test B flood test
Procedure, shortened: as §2

[19] = test system: duck salad (Heteranthera limosa); assay: Test B flood test
Procedure, shortened: as §2

[20] = test system: rice (Oryza sativa); assay: Test B flood test
Procedure, shortened: as §2

[21] = Rate 250 g/ha, Postemergence (so in the source)
[22] = Rate 62 g/ha, Postemergence (flood test)
[23] = Rate 125 g/ha, Postemergence, flood test
[24] = Rate 250 g/ha, Postemergence (flood test species)
[25] = Rate 125 g/ha, Postemergence section (flood test species)

Cc1cnc(-c2cccc(C(F)(F)F)c2)nc1Cc1cccc(C#N)c1 [Compound 39]
2: Plant response rating, Redroot pigweed ([1]; Rate 62 g/ha, Postemergence) | Redroot pigweed plant response rating ([1]; Rate 125 g/ha, Postemergence) | Plant response rating, Cocklebur ([7]; Rate 62 g/ha, Postemergence) | Plant response rating, Cocklebur ([7]; Rate 125 g/ha, Postemergence) | Plant response rating, Soybean ([9]; Rate 250 g/ha, Postemergence) | S. Flatsedge plant response rating [18, 25] | Plant response rating, S. Flatsedge [18, 24]
4: Plant response rating, Bedstraw ([4]; Rate 250 g/ha, Postemergence) | Plant response rating, Rape ([14]; Rate 250 g/ha, Postemergence)
5: Plant response rating, Cocklebur ([7]; Rate 250 g/ha, Postemergence)
10: Plant response rating, Sugarbeets ([16]; Rate 250 g/ha, Postemergence)
9: Sugarbeets plant response rating ([16]; Rate 125 g/ha, Postemergence)
7: Plant response rating, Sugarbeets ([16]; Rate 62 g/ha, Postemergence)
0: Redroot pigweed plant response rating ([1]; Rate 62 g/ha, Preemergence) | Redroot pigweed plant response rating ([1]; Rate 125 g/ha, Preemergence) | Plant response rating, Redroot pigweed [1, 21] | Plant response rating, Nutsedge ([2]; Rate 62 g/ha, Postemergence) | Nutsedge plant response rating ([2]; Rate 62 g/ha, Preemergence) | Nutsedge plant response rating ([2]; Rate 125 g/ha, Postemergence) | Nutsedge plant response rating ([2]; Rate 125 g/ha, Preemergence) | Plant response rating, Nutsedge ([2]; Rate 250 g/ha, Postemergence) | Plant response rating, Nutsedge [2, 21] | Plant response rating, Crabgrass ([3]; Rate 62 g/ha, Postemergence) | Crabgrass plant response rating ([3]; Rate 62 g/ha) | Plant response rating, Crabgrass ([3]; Rate 125 g/ha, Postemergence) | Crabgrass plant response rating ([3]; Rate 125 g/ha) | Plant response rating, Crabgrass [3, 21] | Bedstraw plant response rating ([4]; Rate 62 g/ha) | Bedstraw plant response rating ([4]; Rate 125 g/ha) | Plant response rating, Bedstraw [4, 21] | Corn plant response rating ([5]; Rate 62 g/ha) | Corn plant response rating ([5]; Rate 125 g/ha) | Plant response rating, Corn [5, 21] | Plant response rating, Velvetleaf ([6]; Rate 62 g/ha, Postemergence) | Velvetleaf plant response rating ([6]; Rate 62 g/ha, Preemergence) | Plant response rating, Velvetleaf ([6]; Rate 125 g/ha, Preemergence) | Plant response rating, Velvetleaf [6, 21] | Cocklebur plant response rating ([7]; Rate 62 g/ha) | Cocklebur plant response rating ([7]; Rate 125 g/ha) | Plant response rating, Cocklebur [7, 21] | Blackgrass plant response rating ([8]; Rate 62 g/ha) | Blackgrass plant response rating ([8]; Rate 125 g/ha) | Plant response rating, Blackgrass [8, 21] | Soybean plant response rating ([9]; Rate 62 g/ha, Preemergence) | Plant response rating, Soybean ([9]; Rate 125 g/ha, Preemergence) | Plant response rating, Soybean [9, 21] | B. signalgrass plant response rating ([10]; Rate 62 g/ha) | B. signalgrass plant response rating ([10]; Rate 125 g/ha) | Plant response rating, B. signalgrass ([10]; Rate 250 g/ha, Postemergence as printed in head r139 (second section for compounds 26-50)) | Wild oats plant response rating ([11]; Rate 62 g/ha, Preemergence) | Plant response rating, Wild oats ([11]; Rate 125 g/ha, Preemergence) | Plant response rating, Wild oats [11, 21] | Plant response rating, Giant foxtail ([12]; Rate 62 g/ha, Postemergence) | Giant foxtail plant response rating ([12]; Rate 62 g/ha, Preemergence) | Giant foxtail plant response rating ([12]; Rate 125 g/ha, Preemergence) | Plant response rating, Giant foxtail [12, 21] | Morningglory plant response rating ([13]; Rate 62 g/ha, Preemergence) | Morningglory plant response rating ([13]; Rate 125 g/ha, Preemergence) | Plant response rating, Morningglory [13, 21] | Rape plant response rating ([14]; Rate 62 g/ha, Preemergence) | Rape plant response rating ([14]; Rate 125 g/ha, Preemergence) | Plant response rating, Rape [14, 21] | Wheat plant response rating ([15]; Rate 62 g/ha, Postemergence) | Wheat plant response rating ([15]; Rate 62 g/ha, Preemergence) | Plant response rating, Wheat ([15]; Rate 125 g/ha, Preemergence) | Plant response rating, Wheat [15, 21] | Sugarbeets plant response rating ([16]; Rate 62 g/ha, Preemergence) | Plant response rating, Sugarbeets ([16]; Rate 125 g/ha, Preemergence) | Plant response rating, Sugarbeets [16, 21] | Plant response rating, Barnyardgrass [17, 22] | Plant response rating, Barnyardgrass [17, 23] | Plant response rating, Barnyardgrass [17, 24] | Plant response rating, S. Flatsedge [18, 22] | Plant response rating, Ducksalad [19, 22] | Plant response rating, Ducksalad [19, 23] | Plant response rating, Ducksalad [19, 24] | Plant response rating, Rice [20, 22] | Rice plant response rating [20, 25] | Plant response rating, Rice [20, 24]
3: Plant response rating, Redroot pigweed ([1]; Rate 250 g/ha, Postemergence) | Plant response rating, Bedstraw ([4]; Rate 62 g/ha, Postemergence) | Plant response rating, Bedstraw ([4]; Rate 125 g/ha, Postemergence)
1: Plant response rating, Crabgrass ([3]; Rate 250 g/ha, Postemergence) | Plant response rating, Corn ([5]; Rate 62 g/ha, Postemergence) | Plant response rating, Corn ([5]; Rate 125 g/ha, Postemergence) | Plant response rating, Corn ([5]; Rate 250 g/ha, Postemergence) | Velvetleaf plant response rating ([6]; Rate 125 g/ha, Postemergence) | Plant response rating, Velvetleaf ([6]; Rate 250 g/ha, Postemergence) | Plant response rating, Blackgrass ([8]; Rate 62 g/ha, Postemergence) | Plant response rating, Blackgrass ([8]; Rate 125 g/ha, Postemergence) | Plant response rating, Blackgrass ([8]; Rate 250 g/ha, Postemergence) | Plant response rating, Soybean ([9]; Rate 62 g/ha, Postemergence) | Soybean plant response rating ([9]; Rate 125 g/ha, Postemergence) | Plant response rating, B. signalgrass ([10]; Rate 62 g/ha, Postemergence) | Plant response rating, B. signalgrass ([10]; Rate 125 g/ha, Postemergence) | Plant response rating, B. signalgrass ([10]; Rate 250 g/ha, Postemergence) | Wild oats plant response rating ([11]; Rate 62 g/ha, Postemergence) | Wild oats plant response rating ([11]; Rate 125 g/ha, Postemergence) | Plant response rating, Wild oats ([11]; Rate 250 g/ha, Postemergence) | Giant foxtail plant response rating ([12]; Rate 125 g/ha, Postemergence) | Plant response rating, Giant foxtail ([12]; Rate 250 g/ha, Postemergence) | Plant response rating, Morningglory ([13]; Rate 62 g/ha, Postemergence) | Morningglory plant response rating ([13]; Rate 125 g/ha, Postemergence) | Plant response rating, Morningglory ([13]; Rate 250 g/ha, Postemergence) | Plant response rating, Rape ([14]; Rate 62 g/ha, Postemergence) | Rape plant response rating ([14]; Rate 125 g/ha, Postemergence) | Wheat plant response rating ([15]; Rate 125 g/ha, Postemergence) | Plant response rating, Wheat ([15]; Rate 250 g/ha, Postemergence)
